Reference: ChEMBL document CHEMBL1201862, “PubChem BioAssay data set” (2004)
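Where inhibition never reached the appropriate level, the endpoint shown equals the highest concentration tested. Otherwise, values were interpolated linearly from a five-concentration, 48-hour dose response in 96-well plates. At the GI50, growth is halved.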 Active and inactive are the calls of the source. Rule as the data show it: active = GI50 up to about 1.1 µM and inactive = higher.

What was measured:
Experiment in all cases: growth of human tumour cells (NCI), 48 h
NCI-H460 = test system: NCI-H460
OVCAR-5 = test system: OVCAR-5
NCI-H226 = test system: NCI-H226
OVCAR-3 = test system: OVCAR-3
EKVX = test system: EKVX
NCI/ADR-RES = test system: NCI/ADR-RES
SR = test system: SR
SNB-19 = test system: SNB-19
SNB-75 = test system: SNB-75
T47D = test system: T47D
SF-295 = test system: SF-295
HCT-116 = test system: HCT-116
OVCAR-8 = test system: OVCAR-8
RPMI-8226 = test system: RPMI-8226
BT-549 = test system: BT-549
MDA-MB-435 = test system: MDA-MB-435
HOP-92 = test system: HOP-92
CCRF-CEM = test system: CCRF-CEM
DU-145 = test system: DU-145
U-251 = test system: U-251
A498 = test system: A498
SK-MEL-28 = test system: SK-MEL-28
NCI-H23 = test system: NCI-H23
OVCAR-4 = test system: OVCAR-4
UACC-257 = test system: UACC-257
786-0 = test system: 786-0
A549 = test system: A549
MDA-MB-231 = test system: MDA-MB-231
COLO 205 = test system: COLO 205
M14 = test system: M14
ACHN = test system: ACHN
KM12 = test system: KM12
TK-10 = test system: TK-10
HT-29 = test system: HT-29
HCT-15 = test system: HCT-15
SK-MEL-5 = test system: SK-MEL-5
SN12C = test system: SN12C
PC-3 = test system: PC-3
HOP-62 = test system: HOP-62
UACC-62 = test system: UACC-62
MDA-N = test system: MDA-N
MCF7 = test system: MCF7
NCI-H522 = test system: NCI-H522
SK-MEL-2 = test system: SK-MEL-2
Malme-3M = test system: Malme-3M
Hs-578T = test system: Hs-578T
RXF 393 = test system: RXF 393
LOX IMVI = test system: LOX IMVI
SK-OV-3 = test system: SK-OV-3
SF-268 = test system: SF-268
SW-620 = test system: SW-620
K562 = test system: K562
IGROV-1 = test system: IGROV-1
CAKI-1 = test system: CAKI-1
HL-60 = test system: HL-60
UO-31 = test system: UO-31
MOLT-4 = test system: MOLT-4
HCC 2998 = test system: HCC 2998

`O=S(=O)(O)C(c1ccccc1)C(O)c1ccccc1` (configuration not stated) was tested, and the GI50 (NCI-H460) was > 100 µM (inactive), the GI50 (OVCAR-5) was > 100 µM (inactive) and the GI50 (NCI-H226) was > 100 µM (inactive). The GI50 (OVCAR-3) was > 100 µM (inactive), the GI50 (EKVX) was > 100 µM (inactive) and the GI50 (NCI/ADR-RES) was > 100 µM (inactive). For the same compound, the GI50 (SR) was > 100 µM (inactive), the GI50 (SNB-19) was > 100 µM (inactive) and the GI50 (SNB-75) was > 100 µM (inactive). For the same compound, the GI50 (T47D) was > 100 µM (inactive), the GI50 (SF-295) was > 100 µM (inactive) and the GI50 (HCT-116) was > 100 µM (inactive). The GI50 (OVCAR-8) was > 100 µM (inactive), the GI50 (RPMI-8226) was > 100 µM (inactive) and the GI50 (BT-549) was > 100 µM (inactive). For the same compound, the GI50 (MDA-MB-435) was > 100 µM (inactive), the GI50 (HOP-92) was > 100 µM (inactive) and the GI50 (CCRF-CEM) was > 100 µM (inactive). The GI50 (DU-145) was > 100 µM (inactive), the GI50 (U-251) was > 100 µM (inactive) and the GI50 (A498) was > 100 µM (inactive). For the same compound, the GI50 (SK-MEL-28) was > 100 µM (inactive), the GI50 (NCI-H23) was > 100 µM (inactive) and the GI50 (OVCAR-4) was > 100 µM (inactive). For the same compound, the GI50 (UACC-257) was 46.5 µM (inactive), the GI50 (786-0) was > 100 µM (inactive) and the GI50 (A549) was > 100 µM (inactive). The GI50 (MDA-MB-231) was > 100 µM (inactive), the GI50 (COLO 205) was > 100 µM (inactive) and the GI50 (M14) was > 100 µM (inactive). The GI50 (ACHN) was > 100 µM (inactive), the GI50 (KM12) was > 100 µM (inactive) and the GI50 (TK-10) was > 100 µM (inactive). For the same compound, the GI50 (HT-29) was > 100 µM (inactive), the GI50 (HCT-15) was > 100 µM and the GI50 (SK-MEL-5) was > 100 µM (inactive). The GI50 (SN12C) was > 100 µM (inactive), the GI50 (PC-3) was > 100 µM (inactive) and the GI50 (HOP-62) was > 100 µM (inactive). For the same compound, the GI50 (UACC-62) was > 100 µM (inactive), the GI50 (MDA-N) was > 100 µM (inactive) and the GI50 (MCF7) was > 100 µM (inactive). The GI50 (NCI-H522) was > 100 µM (inactive), the GI50 (SK-MEL-2) was > 100 µM (inactive) and the GI50 (Malme-3M) was > 100 µM (inactive). For the same compound, the GI50 (Hs-578T) was > 100 µM (inactive), the GI50 (RXF 393) was > 100 µM (inactive) and the GI50 (LOX IMVI) was > 100 µM (inactive). For the same compound, the GI50 (SK-OV-3) was > 100 µM (inactive), the GI50 (SF-268) was > 100 µM (inactive) and the GI50 (SW-620) was > 100 µM (inactive). The GI50 (K562) was > 100 µM (inactive), the GI50 (IGROV-1) was > 100 µM (inactive) and the GI50 (CAKI-1) was > 100 µM (inactive). The GI50 (HL-60) was > 100 µM (inactive) and the GI50 (UO-31) was > 100 µM (inactive).

`Nc1nc(SCC(=O)c2ccc(Br)cc2)c2nc[nH]c2n1` was tested, and the GI50 (NCI-H460) was 28.7 µM (inactive), the GI50 (OVCAR-5) was 47.1 µM (inactive) and the GI50 (NCI-H226) was 27.1 µM (inactive). The GI50 (OVCAR-3) was 32.3 µM (inactive), the GI50 (EKVX) was 38.5 µM (inactive) and the GI50 (NCI/ADR-RES) was 27.4 µM (inactive). For the same compound, the GI50 (SR) was 17.9 µM (inactive), the GI50 (SNB-19) was > 100 µM (inactive) and the GI50 (SNB-75) was 28 µM (inactive). For the same compound, the GI50 (T47D) was 25.8 µM (inactive), the GI50 (SF-295) was 34.8 µM (inactive) and the GI50 (HCT-116) was 31.2 µM (inactive). For the same compound, the GI50 (OVCAR-8) was 28.8 µM (inactive), the GI50 (RPMI-8226) was 17.1 µM (inactive) and the GI50 (BT-549) was 27 µM (inactive). The GI50 (MDA-MB-435) was 35.2 µM (inactive), the GI50 (HOP-92) was 17.3 µM (inactive) and the GI50 (CCRF-CEM) was 6.28 µM (inactive). The GI50 (DU-145) was 27.5 µM (inactive), the GI50 (U-251) was 44.4 µM (inactive) and the GI50 (A498) was 51.6 µM (inactive). The GI50 (SK-MEL-28) was 65.2 µM (inactive), the GI50 (NCI-H23) was 45.2 µM (inactive) and the GI50 (OVCAR-4) was 53.3 µM (inactive). The GI50 (UACC-257) was 30.5 µM (inactive), the GI50 (786-0) was 42.2 µM (inactive) and the GI50 (A549) was 55 µM (inactive). For the same compound, the GI50 (MDA-MB-231) was 52.1 µM (inactive), the GI50 (COLO 205) was 17 µM (inactive) and the GI50 (M14) was 40.5 µM (inactive). For the same compound, the GI50 (ACHN) was 34 µM (inactive), the GI50 (KM12) was 44.8 µM (inactive) and the GI50 (TK-10) was 20.8 µM (inactive). The GI50 (HT-29) was 44.6 µM (inactive), the GI50 (HCT-15) was 30.1 µM and the GI50 (SK-MEL-5) was 20 µM (inactive). The GI50 (SN12C) was 34.4 µM (inactive), the GI50 (PC-3) was 34.2 µM (inactive) and the GI50 (HOP-62) was 44.9 µM (inactive). For the same compound, the GI50 (UACC-62) was 37.7 µM (inactive), the GI50 (MDA-N) was 34.8 µM (inactive) and the GI50 (MCF7) was 56.4 µM (inactive). The GI50 (NCI-H522) was 17.8 µM (inactive), the GI50 (SK-MEL-2) was 32.1 µM (inactive) and the GI50 (Malme-3M) was 29.4 µM (inactive). The GI50 (Hs-578T) was 21.6 µM (inactive), the GI50 (RXF 393) was 41.9 µM (inactive) and the GI50 (LOX IMVI) was 31.4 µM (inactive). For the same compound, the GI50 (SK-OV-3) was 34.5 µM (inactive), the GI50 (SF-268) was 23 µM (inactive) and the GI50 (SW-620) was 46.6 µM (inactive). The GI50 (K562) was 18.1 µM (inactive), the GI50 (IGROV-1) was 13.6 µM (inactive) and the GI50 (CAKI-1) was 26.2 µM (inactive). The GI50 (HL-60) was 25.3 µM (inactive) and the GI50 (UO-31) was 27.4 µM (inactive).

For `Cc1cc(NS(=O)(=O)c2ccc(Nc3c4ccccc4nc4c(C(=O)NC(CO)(CO)CO)cccc34)cc2)no1`, the GI50 (NCI-H460) was > 10 µM (inactive), the GI50 (OVCAR-5) was 62.8 µM (inactive) and the GI50 (OVCAR-3) was 39.3 µM (inactive). The GI50 (EKVX) was 73.6 µM (inactive), the GI50 (NCI/ADR-RES) was > 100 µM (inactive) and the GI50 (SR) was 26.3 µM (inactive). The GI50 (SNB-19) was 34.4 µM (inactive), the GI50 (SNB-75) was 8.41 µM (inactive) and the GI50 (T47D) was 26.5 µM (inactive). The GI50 (SF-295) was 41 µM (inactive), the GI50 (OVCAR-8) was 49.7 µM (inactive) and the GI50 (RPMI-8226) was 19.7 µM (inactive). The GI50 (BT-549) was 39.2 µM (inactive), the GI50 (MDA-MB-435) was 53.5 µM (inactive) and the GI50 (HOP-92) was 32.7 µM (inactive). The GI50 (CCRF-CEM) was 19.4 µM (inactive), the GI50 (DU-145) was 48.1 µM (inactive) and the GI50 (U-251) was 34.2 µM (inactive). The GI50 (A498) was 47.1 µM (inactive), the GI50 (SK-MEL-28) was 52.8 µM (inactive) and the GI50 (NCI-H23) was 43.6 µM (inactive). For the same compound, the GI50 (OVCAR-4) was 48.8 µM (inactive), the GI50 (UACC-257) was 72.1 µM (inactive) and the GI50 (786-0) was 34.4 µM (inactive). For the same compound, the GI50 (A549) was 48.1 µM (inactive), the GI50 (MDA-MB-231) was 37.9 µM (inactive) and the GI50 (COLO 205) was 42.4 µM (inactive). The GI50 (M14) was 52.5 µM (inactive), the GI50 (ACHN) was 32.7 µM (inactive) and the GI50 (KM12) was 25.2 µM (inactive). For the same compound, the GI50 (TK-10) was 29.2 µM (inactive), the GI50 (HT-29) was 38.7 µM (inactive) and the GI50 (HCT-15) was 61.7 µM. For the same compound, the GI50 (SK-MEL-5) was 32.4 µM (inactive), the GI50 (SN12C) was 23.1 µM (inactive) and the GI50 (PC-3) was 31.3 µM (inactive). For the same compound, the GI50 (MOLT-4) was 8.75 µM (inactive), the GI50 (HOP-62) was 25.1 µM (inactive) and the GI50 (UACC-62) was 22 µM (inactive). The GI50 (MDA-N) was 37.3 µM (inactive), the GI50 (HCC 2998) was 16.9 µM (inactive) and the GI50 (MCF7) was 23.3 µM (inactive). The GI50 (NCI-H522) was 15.8 µM (inactive), the GI50 (SK-MEL-2) was 19.4 µM (inactive) and the GI50 (Malme-3M) was 29.4 µM (inactive). For the same compound, the GI50 (Hs-578T) was 25.1 µM (inactive), the GI50 (LOX IMVI) was 18.2 µM (inactive) and the GI50 (SK-OV-3) was 35.2 µM (inactive). The GI50 (SF-268) was 21.3 µM (inactive), the GI50 (SW-620) was 31 µM (inactive) and the GI50 (K562) was 33.3 µM (inactive). The GI50 (IGROV-1) was 29 µM (inactive), the GI50 (CAKI-1) was 42.2 µM (inactive) and the GI50 (HL-60) was 34.5 µM (inactive). The GI50 (UO-31) was 48.6 µM (inactive).
